According to patent US10076503B2 (priority 2014, dated 2018):

What was measured:
DAT sites = target: T1, DAT sites (Homo sapiens, UniProt Q01959); experiment: DAT site occupancy versus serum concentration (other studies, not shown); conditions: in vivo
T1 construct: from tissue; host or cells: brain in vivo (my inference)

clinical = conditions: human, in vivo
Experimental: Upon oral administration, methylphenidate is rapidly and completely absorbed from the gastrointestinal tract. Peak concentrations occur 1 to 2 hours after dose administration. […] When methylphenidate and cocaine are administered intravenously, their pharmacokinetics are quite similar—the percentage of each drug taken up by the brain and their rates of uptake are parallel, although the clearance from the brain of cocaine is faster than that of methylphenidate. The receptor-binding affinities for cocaine and methylphenidate are similar at the dopamine transporter in the basal ganglia and the striatum. […] Thus it appears that abuse may be related to a rapid surge in dopamine levels in the striatum. […] The consequence of the slow increase in dopamine is the absence of a “high”, and the consequence of the long T1/2 is that serum concentration gradually increases to a steady state.

[1] = tested on: healthy recreational stimulant users; experiment: single-dose crossover abuse potential study, placebo- and methylphenidate-controlled; type: in vivo, human
Excerpt: A single-dose, randomized, double-blind, double-dummy, placebo- and active-controlled crossover study with 6 Treatment Visits per subject was undertaken. […] Subjects participated in a medical screening visit (Visit 1), one 4-day inpatient qualification phase (Visit 2), a treatment phase (Visits 3 to 8) consisting of six 5-day inpatient treatment visits, and a safety follow-up visit (Visit 9). Within 21 days of the screening visit, subjects were enrolled and attended a qualification phase in which they received either 60 mg methylphenidate or matching placebo in a randomized double-blind crossover manner. Dosing times were separated by approximately 24 hours to ensure that subjects could discriminate and show positive effects of the positive control.
Healthy female and male subjects aged 18 to 55 years (inclusive), who were recreational central nervous system (CNS) stimulant users with cocaine experience and who had passed the methylphenidate qualification phase, were randomized into the treatment.
Drug administration occurred on Day 1 of each treatment visit followed by pharmacodynamic (PD), pharmacokinetic (PK), and safety assessments conducted for up to 72 hours post-dose. […] Subjects were randomized to one of 6 treatment sequences according to a 6×6 William square design. The capsules received at each treatment visit (Visits 3 to 8) were identical. Serial pharmacodynamic and pharmacokinetic evaluations were taken at each treatment visit. Pharmacokinetic analysis was performed for dasotraline. Safety monitoring included regular assessments of vital signs, clinical laboratory tests, and adverse events (AEs), as well as continuous telemetry monitoring for at least 12 hours post-dose. Treatment visits were separated by a washout interval of at least 21 days (from the day of dosing). Subjects returned for the safety follow-up visit within approximately 14 days following the end of the last treatment visit.

adults with ADHD = type: in vivo, human
Experimental: The study consisted of three periods including Screening, Treatment, and Washout/Follow-up, as described below. Efficacy was evaluated using the ADHD Rating Scale Version IV (ADHD RS-IV) with adult prompts. Effects on cognition were evaluated using the clinical data repository system. Safety and tolerability were monitored throughout the study by collection of physical examinations, 12-lead electrocardiograms (ECG), vital signs, adverse events (AEs), hematology, blood chemistry, urinalysis, Insomnia Severity Index (ISI), and Columbia—Suicide Severity Rating Scale (C-SSRS).
Subjects self-administered the study drug at home on Days 1 through 28, at approximately the same time each night. After Day 1 subjects returned to the clinic on Days 8, 15, 22, and 29. Beginning at Day 1 and at every visit during the treatment period, the ADHD RS-IV, Wender-Reimherr Adult Attention Deficit Disorder Scale (WRAADDS), and clinical global impression—severity (CGI-S) were completed. The clinical data repository system was administered at Baseline, and Days 15 and 29.
At Days 36 and 43, subjects returned to the clinic and the ADHD RS-IV, WRAADDS, and CGI-S were completed. The clinical data repository system was completed on Day 43.

[2] = cited from earlier work
[3] = methylphenidate 40 mg and 80 mg, single dose

T1 sequence (Q01959 whole entry): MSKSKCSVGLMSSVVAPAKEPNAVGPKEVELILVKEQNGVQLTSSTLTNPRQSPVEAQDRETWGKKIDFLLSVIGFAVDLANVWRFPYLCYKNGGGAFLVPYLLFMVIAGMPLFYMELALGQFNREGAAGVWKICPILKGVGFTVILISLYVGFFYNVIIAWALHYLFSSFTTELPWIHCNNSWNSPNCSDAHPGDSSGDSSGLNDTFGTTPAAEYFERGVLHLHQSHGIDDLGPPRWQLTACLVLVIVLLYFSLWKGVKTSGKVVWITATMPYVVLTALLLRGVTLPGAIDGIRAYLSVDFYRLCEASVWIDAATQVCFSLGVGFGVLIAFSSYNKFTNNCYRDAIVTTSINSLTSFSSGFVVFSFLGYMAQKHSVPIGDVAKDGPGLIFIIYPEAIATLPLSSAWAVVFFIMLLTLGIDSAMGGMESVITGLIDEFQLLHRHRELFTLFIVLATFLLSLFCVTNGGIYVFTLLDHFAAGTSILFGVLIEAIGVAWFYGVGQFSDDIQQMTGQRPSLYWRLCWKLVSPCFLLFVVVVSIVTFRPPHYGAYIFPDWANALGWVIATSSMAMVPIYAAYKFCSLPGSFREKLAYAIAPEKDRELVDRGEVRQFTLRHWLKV

N[C@@H]1CC[C@@H](c2ccc(Cl)c(Cl)c2)c2ccccc21 [dasotraline, (1R,4S)-4-(3,4-Dichlorophenyl)-1,2,3,4-tetrahydronaphthalen-1-amine]
serum concentration at which 50% DAT site occupancy was achieved (DAT sites): 5 to 6 ng/mL
Cmax (clinical; 4 mg): ~1.5 ng/mL
Tmax (clinical; 4 mg): > 6 h
Tmax (clinical; po): 10 to 12 h
half-life (clinical; po): 47 to 77 h
differences from placebo on pharmacodynamic endpoints ([1]; 16 mg single dose): very few statistically significant differences from placebo
effects on most pharmacodynamic endpoints versus placebo ([1]; dasotraline 8, 16 and 36 mg, single dose): not significantly different from those of placebo
anxiety leading to discontinuation (adults with ADHD; 4 mg once daily): 2.6%
computerized cognitive assessment battery: attention, working memory, episodic memory (adults with ADHD; 4 mg once daily): no significant main effects
insomnia leading to discontinuation (adults with ADHD; 4 mg once daily): 2.6%
Wender-Reimherr ADD total score (adults with ADHD; 4 mg once daily versus placebo): did not improve enough to achieve statistical significance
treatment-emergent adverse events (TEAEs), percentage (adults with ADHD; 4 mg once daily versus placebo): higher than the percentage of TEAEs in the placebo group
Wender-Reimherr subscore for the attention difficulties component (adults with ADHD; 4 mg once daily versus placebo, week 4): statistically significant improvement
serum concentration as a function of time (adults with ADHD; 4 mg once daily, 4 weeks): began to plateau by week four
ADHD RS-IV total score, LS mean change from baseline versus placebo (adults with ADHD; 4 mg once daily, to week four, p<0.05, FIG. 1): statistically different at weeks three and four
CGI-S score, LS mean change from baseline versus placebo (adults with ADHD; 4 mg once daily, to week four, p<0.05, FIG. 2): statistically different at weeks three and four
incidence of adverse events rated as severe (adults with ADHD; 4 mg once daily, placebo group 2.7%): 6%
mean concentrations at steady state (adults with ADHD; 4 mg/d): 6 ng/mL
circulating DHPG levels (adults with ADHD; 4 mg/d, indicative of central inhibition of norepinephrine transporters): decreased circulating DHPG levels
time of administration to statistically significant improvement in ADHD (adults with ADHD; oral dosage form containing 4 mg): about two to three

COC(=O)C(c1ccccc1)C1CCCCN1 (stereo not shown) [methylphenidate]
Drug Similarity Visual Analog Scale [1, 3]: strongly identified as a stimulant
majority of pharmacodynamic endpoints incl. Drug Liking Visual Analog Scale, versus placebo [1, 3]: significant differences compared to placebo
secondary stimulant measures [1, 3]: strong stimulant effects
pharmacokinetic half-life ([2]; in vivo): approximately 2 hours
time of peak concentrations after dose administration ([2]; oral administration): 1 to 2 h
